Values joined by “and” are separate entries in the source; they are usually repeats but may differ in a detail not shown here. Equal values may be shown once.
How the values were obtained:
[1] = xn = mol fraction of the nth substance listed; settings: 298 K; 100 kPa; Crystal of intercomponent compound 1; X-ray diffraction; x2 = 0.542
[2] = specific heat capacity at constant pressure; xn = mol fraction of the nth substance listed; settings: 100 kPa, Crystal of intercomponent compound 1, x2 = 0.542

[Te] [tellurium] + [In]
Settings | mass density [kg/m3]
[1] | 6307

[2]
Settings | specific heat capacity
10.11 K, relaxation calorimetry | 13.3 J/K/kg and 13.26 J/K/kg
10.12 K, relaxation calorimetry | 13.3 J/K/kg
12.12 K, relaxation calorimetry | 20.6 J/K/kg and 20.59 J/K/kg
12.13 K, relaxation calorimetry | 20.65 J/K/kg
14.14 K, relaxation calorimetry | 28.68 J/K/kg and 28.67 J/K/kg and 28.69 J/K/kg
16.15 K, relaxation calorimetry | 36.99 J/K/kg
16.16 K, relaxation calorimetry | 36.96 J/K/kg and 37.07 J/K/kg
18.17 K, relaxation calorimetry | 45.25 J/K/kg
18.18 K, relaxation calorimetry | 45.21 J/K/kg
20.18 K, relaxation calorimetry | 53.21 J/K/kg
20.19 K, relaxation calorimetry | 53.01 J/K/kg and 53.25 J/K/kg
22.2 K, relaxation calorimetry | 60.8 J/K/kg and 61.01 J/K/kg and 60.84 J/K/kg
24.22 K, relaxation calorimetry | 68.02 J/K/kg and 68.1 J/K/kg
26.23 K, relaxation calorimetry | 74.95 J/K/kg
26.24 K, relaxation calorimetry | 74.91 J/K/kg and 74.95 J/K/kg
28.25 K, relaxation calorimetry | 81.26 J/K/kg and 81.31 J/K/kg
30.27 K, relaxation calorimetry | 87.16 J/K/kg
35.3 K, relaxation calorimetry | 101.02 J/K/kg
35.31 K, relaxation calorimetry | 100.94 J/K/kg and 100.9 J/K/kg
40.34 K, relaxation calorimetry | 112.78 J/K/kg and 112.99 J/K/kg
40.35 K, relaxation calorimetry | 112.74 J/K/kg
45.38 K, relaxation calorimetry | 122.93 J/K/kg and 123.09 J/K/kg
45.39 K, relaxation calorimetry | 122.76 J/K/kg
50.41 K, relaxation calorimetry | 132.54 J/K/kg
50.42 K, relaxation calorimetry | 132.13 J/K/kg
50.43 K, relaxation calorimetry | 132.04 J/K/kg
55.43 K, relaxation calorimetry | 140.42 J/K/kg
55.45 K, relaxation calorimetry | 139.92 J/K/kg
55.47 K, relaxation calorimetry | 139.72 J/K/kg
60.47 K, relaxation calorimetry | 146.93 J/K/kg
60.49 K, relaxation calorimetry | 146.4 J/K/kg
60.51 K, relaxation calorimetry | 146.44 J/K/kg
65.49 K, relaxation calorimetry | 153.78 J/K/kg
65.53 K, relaxation calorimetry | 152.79 J/K/kg
65.56 K, relaxation calorimetry | 152.5 J/K/kg
70.51 K, relaxation calorimetry | 159.39 J/K/kg
70.57 K, relaxation calorimetry | 158.16 J/K/kg
70.61 K, relaxation calorimetry | 157.78 J/K/kg
75.55 K, relaxation calorimetry | 164.01 J/K/kg
75.61 K, relaxation calorimetry | 162.86 J/K/kg
75.65 K, relaxation calorimetry | 162.69 J/K/kg
80.58 K, relaxation calorimetry | 169.46 J/K/kg
80.64 K, relaxation calorimetry | 167.77 J/K/kg
80.7 K, relaxation calorimetry | 167.02 J/K/kg
85.6 K, relaxation calorimetry | 173.13 J/K/kg
85.68 K, relaxation calorimetry | 172.14 J/K/kg
85.74 K, relaxation calorimetry | 170.65 J/K/kg
90.65 K, relaxation calorimetry | 176.64 J/K/kg
90.72 K, relaxation calorimetry | 175.44 J/K/kg
90.77 K, relaxation calorimetry | 175.19 J/K/kg
95.67 K, relaxation calorimetry | 179.52 J/K/kg
95.75 K, relaxation calorimetry | 178.16 J/K/kg
95.8 K, relaxation calorimetry | 177.96 J/K/kg
100.78 K, relaxation calorimetry | 180.43 J/K/kg
100.82 K, relaxation calorimetry | 179.89 J/K/kg
100.89 K, relaxation calorimetry | 181.75 J/K/kg
106.78 K, relaxation calorimetry | 184.18 J/K/kg
106.86 K, relaxation calorimetry | 182.66 J/K/kg
106.88 K, relaxation calorimetry | 182.86 J/K/kg
113.77 K, relaxation calorimetry | 186.45 J/K/kg
113.82 K, relaxation calorimetry | 185.55 J/K/kg
113.85 K, relaxation calorimetry | 185.13 J/K/kg
120.77 K, relaxation calorimetry | 188.39 J/K/kg
120.8 K, relaxation calorimetry | 188.64 J/K/kg
120.84 K, relaxation calorimetry | 187.28 J/K/kg
127.76 K, relaxation calorimetry | 189.79 J/K/kg
127.78 K, relaxation calorimetry | 190.45 J/K/kg
127.81 K, relaxation calorimetry | 189.51 J/K/kg
134.73 K, relaxation calorimetry | 191.98 J/K/kg
134.75 K, relaxation calorimetry | 191.11 J/K/kg
134.77 K, relaxation calorimetry | 191.32 J/K/kg
141.7 K, relaxation calorimetry | 193.51 J/K/kg
141.73 K, relaxation calorimetry | 192.35 J/K/kg
141.74 K, relaxation calorimetry | 193.09 J/K/kg
148.67 K, relaxation calorimetry | 194.87 J/K/kg
148.71 K, relaxation calorimetry | 194.62 J/K/kg and 193.75 J/K/kg
155.61 K, relaxation calorimetry | 195.65 J/K/kg
155.64 K, relaxation calorimetry | 195.94 J/K/kg and 195.82 J/K/kg
162.58 K, relaxation calorimetry | 197.26 J/K/kg
162.62 K, relaxation calorimetry | 197.38 J/K/kg
169.55 K, relaxation calorimetry | 198.54 J/K/kg
169.58 K, relaxation calorimetry | 198.37 J/K/kg
169.59 K, relaxation calorimetry | 198.42 J/K/kg
176.53 K, relaxation calorimetry | 198.87 J/K/kg
176.56 K, relaxation calorimetry | 198.83 J/K/kg
176.57 K, relaxation calorimetry | 198.87 J/K/kg
183.5 K, relaxation calorimetry | 199.69 J/K/kg
183.54 K, relaxation calorimetry | 199.69 J/K/kg
190.47 K, relaxation calorimetry | 200.4 J/K/kg
190.51 K, relaxation calorimetry | 200.44 J/K/kg and 200.48 J/K/kg
197.43 K, relaxation calorimetry | 200.56 J/K/kg
197.47 K, relaxation calorimetry | 200.68 J/K/kg and 200.77 J/K/kg
204.39 K, relaxation calorimetry | 201.18 J/K/kg
204.43 K, relaxation calorimetry | 201.3 J/K/kg
204.44 K, relaxation calorimetry | 201.34 J/K/kg
211.34 K, relaxation calorimetry | 201.67 J/K/kg
211.38 K, relaxation calorimetry | 201.76 J/K/kg
211.39 K, relaxation calorimetry | 201.59 J/K/kg
218.29 K, relaxation calorimetry | 201.76 J/K/kg
218.34 K, relaxation calorimetry | 201.92 J/K/kg
225.27 K, relaxation calorimetry | 202.09 J/K/kg
225.31 K, relaxation calorimetry | 202.29 J/K/kg and 202.17 J/K/kg
226.53 K, relaxation calorimetry | 200.85 J/K/kg
226.54 K, relaxation calorimetry | 201.01 J/K/kg
231.55 K, relaxation calorimetry | 201.3 J/K/kg
231.56 K, relaxation calorimetry | 201.22 J/K/kg
232.22 K, relaxation calorimetry | 202.38 J/K/kg
232.27 K, relaxation calorimetry | 202.33 J/K/kg
232.28 K, relaxation calorimetry | 202.29 J/K/kg
236.56 K, relaxation calorimetry | 201.39 J/K/kg
236.57 K, relaxation calorimetry | 201.47 J/K/kg
239.17 K, relaxation calorimetry | 202 J/K/kg
239.24 K, relaxation calorimetry | 202.09 J/K/kg and 202.05 J/K/kg
241.58 K, relaxation calorimetry | 201.67 J/K/kg
241.6 K, relaxation calorimetry | 201.26 J/K/kg
246.14 K, relaxation calorimetry | 201.88 J/K/kg
246.19 K, relaxation calorimetry | 202.09 J/K/kg and 202.05 J/K/kg
246.51 K, relaxation calorimetry | 201.51 J/K/kg
246.52 K, relaxation calorimetry | 201.92 J/K/kg
251.63 K, relaxation calorimetry | 202.09 J/K/kg
251.64 K, relaxation calorimetry | 202 J/K/kg
253.09 K, relaxation calorimetry | 202.17 J/K/kg
253.15 K, relaxation calorimetry | 202.13 J/K/kg and 202.17 J/K/kg
256.55 K, relaxation calorimetry | 202.29 J/K/kg
256.56 K, relaxation calorimetry | 202.17 J/K/kg
260.04 K, relaxation calorimetry | 202.25 J/K/kg
260.1 K, relaxation calorimetry | 202.25 J/K/kg and 202.29 J/K/kg
261.55 K, relaxation calorimetry | 202.25 J/K/kg
261.57 K, relaxation calorimetry | 202.13 J/K/kg
266.18 K, Extra sensitive DSC | 203.98 J/K/kg
270 K, Extra sensitive DSC | 203.98 J/K/kg
275 K, Extra sensitive DSC | 204.48 J/K/kg
280 K, Extra sensitive DSC | 204.89 J/K/kg
285 K, Extra sensitive DSC | 205.18 J/K/kg
290 K, Extra sensitive DSC | 205.59 J/K/kg
295 K, Extra sensitive DSC | 206.09 J/K/kg
300 K, Extra sensitive DSC | 206.5 J/K/kg
305 K, Extra sensitive DSC | 207.08 J/K/kg
310 K, Extra sensitive DSC | 207.28 J/K/kg
315 K, Extra sensitive DSC | 207.28 J/K/kg
320 K, Extra sensitive DSC | 207.28 J/K/kg
325 K, Extra sensitive DSC | 207.49 J/K/kg
328.56 K, Extra sensitive DSC | 207.7 J/K/kg
332.56 K, Extra sensitive DSC | 209.1 J/K/kg
335.17 K, Extra sensitive DSC | 209.43 J/K/kg
336.9 K, Extra sensitive DSC | 209.39 J/K/kg
339.51 K, Extra sensitive DSC | 209.35 J/K/kg
342.11 K, Extra sensitive DSC | 209.39 J/K/kg
344.71 K, Extra sensitive DSC | 209.18 J/K/kg
347.32 K, Extra sensitive DSC | 209.02 J/K/kg
349.92 K, Extra sensitive DSC | 208.77 J/K/kg
352.53 K, Extra sensitive DSC | 208.4 J/K/kg
355.13 K, Extra sensitive DSC | 208.48 J/K/kg
357.73 K, Extra sensitive DSC | 208.27 J/K/kg
358.6 K, Extra sensitive DSC | 208.15 J/K/kg

— the NIST ThermoML archive (doi:10.1016/j.jct.2018.08.013)
